For the assay, the target named is Tyrosine-protein kinase BTK (Homo sapiens, UniProt Q06187). The assay is described as follows: Caliper-based kinase assay. The conditions noted are these: 25 °C.
Tyrosine-protein kinase BTK, sequence (Q06187 whole entry): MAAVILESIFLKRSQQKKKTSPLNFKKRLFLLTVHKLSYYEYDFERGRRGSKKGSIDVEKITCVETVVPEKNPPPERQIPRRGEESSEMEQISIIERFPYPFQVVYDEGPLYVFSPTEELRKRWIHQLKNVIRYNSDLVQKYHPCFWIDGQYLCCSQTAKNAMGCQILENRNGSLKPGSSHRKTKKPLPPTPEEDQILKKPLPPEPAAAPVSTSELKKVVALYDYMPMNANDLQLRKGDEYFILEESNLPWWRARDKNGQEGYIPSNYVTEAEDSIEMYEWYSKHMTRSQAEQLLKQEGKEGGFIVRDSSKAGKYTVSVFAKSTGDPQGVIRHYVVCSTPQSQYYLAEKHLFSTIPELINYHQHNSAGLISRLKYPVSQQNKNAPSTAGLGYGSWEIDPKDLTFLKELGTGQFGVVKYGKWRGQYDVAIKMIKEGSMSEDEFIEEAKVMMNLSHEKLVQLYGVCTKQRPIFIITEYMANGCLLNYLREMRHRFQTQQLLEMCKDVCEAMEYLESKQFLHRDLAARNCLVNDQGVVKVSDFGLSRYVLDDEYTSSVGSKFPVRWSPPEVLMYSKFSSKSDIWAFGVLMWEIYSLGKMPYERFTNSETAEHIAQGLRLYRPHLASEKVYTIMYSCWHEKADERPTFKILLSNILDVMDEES

Method: A Caliper-based kinase assay (Caliper Life Sciences, Hopkinton, Mass.) was used to measure inhibition of Btk kinase activity of a compound of Formula (I). […] The reaction was then terminated with EDTA, final concentration 20 mM and the phosphorylated reaction product was quantified on a Caliper Desktop Profiler (Caliper LabChip 3000).

In the case of `CN(CCn1nc(-c2ccc(Oc3ccccc3)cc2)c2c(N)ncnc21)C(=O)C(C#N)=CC1CC1` [US9572811, Example 36A], inhibition was half-maximal at 4.3 nM (IC50).

These data come from BindingDB's records for patent US9572811 (Principia Biopharma, 2017).
